According to US20150105252A1, “SUBSTITUTED PYRAZOLES AS HERBICIDES” (E I DU PONT DE NEMOURS AND COMPANY, priority 2013, published 2015):

How the values were obtained:
[1] = tested on: radish, wild; assay: Test D preemergence; assay type: in vivo, Raphanus raphanistrum; settings: Preemergence, scale 0 to 100
Method in brief: (§1)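 Visual injury scored 0–100 (0 none, 100 complete control) against controls 14–21 days after treatment in a controlled growth environment. Chemicals were formulated in a non-phytotoxic solvent mixture containing surfactant, applied to silt loam soil preemergence or to 1- to 4-leaf plants postemergence.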

[2] = tested on: pigweed; assay: Test D postemergence; assay type: in vivo, Amaranthus retroflexus; settings: scale 0 to 100
Method in brief: as §1

[3] = tested on: deadnettle; assay: Test D postemergence; assay type: in vivo, Lamium amplexicaule; settings: scale 0 to 100
Method in brief: as §1

[4] = tested on: buckwheat, wild; assay: Test D postemergence; assay type: in vivo, Polygonum convolvulus; settings: scale 0 to 100
Method in brief: as §1

[5] = tested on: foxtail, green; assay: Test D preemergence; assay type: in vivo, Setaria viridis; settings: for Plant response rating, Foxtail, Green: Preemergence, scale 0 to 100
Method in brief: as §1

[6] = tested on: field violet; assay: Test D postemergence; assay type: in vivo, Viola arvensis; settings: scale 0 to 100
Method in brief: as §1

[7] = tested on: mustard, wild; assay: Test D postemergence; assay type: in vivo, Sinapis arvensis; settings: scale 0 to 100
Method in brief: as §1

[8] = tested on: canarygrass; assay: Test D postemergence; assay type: in vivo, Phalaris minor; settings: scale 0 to 100
Method in brief: as §1

[9] = tested on: deadnettle; assay: Test D preemergence; assay type: in vivo, Lamium amplexicaule; settings: for Plant response rating, Deadnettle: Preemergence, scale 0 to 100
Method in brief: as §1

[10] = tested on: barley, spring; assay: Test D preemergence; assay type: in vivo, Hordeum vulgare; settings: for Plant response rating, Barley, Spring: Preemergence, scale 0 to 100
Method in brief: as §1

[11] = tested on: barley, winter; assay: Test D preemergence; assay type: in vivo, Hordeum vulgare; settings: for Plant response rating, Barley, Winter: Preemergence, scale 0 to 100
Method in brief: as §1

[12] = tested on: barley, spring; assay: Test D postemergence; assay type: in vivo, Hordeum vulgare; settings: scale 0 to 100
Method in brief: as §1

[13] = tested on: barley, winter; assay: Test D postemergence; assay type: in vivo, Hordeum vulgare; settings: scale 0 to 100
Method in brief: as §1

[14] = tested on: pigweed; assay: Test D preemergence; assay type: in vivo, Amaranthus retroflexus; settings: for Plant response rating, Pigweed: Preemergence, scale 0 to 100
Method in brief: as §1

[15] = tested on: chamomile; assay: Test D preemergence; assay type: in vivo, Matricaria inodora; settings: for Plant response rating, Chamomile: Preemergence, scale 0 to 100
Method in brief: as §1

[16] = tested on: bromegrass, downy; assay: Test D preemergence; assay type: in vivo, Bromus tectorum; settings: for Plant response rating, Bromegrass, Downy: Preemergence, scale 0 to 100
Method in brief: as §1

[17] = tested on: lambsquarters; assay: Test D preemergence; assay type: in vivo, Chenopodium album; settings: for Plant response rating, Lambsquarters: Preemergence, scale 0 to 100
Method in brief: as §1

[18] = tested on: oat, wild; assay: Test D postemergence; assay type: in vivo, Avena fatua; settings: scale 0 to 100
Method in brief: as §1

[19] = tested on: wheat, spring; assay: Test D preemergence; assay type: in vivo, Triticum aestivum; settings: for Plant response rating, Wheat, Spring: Preemergence, scale 0 to 100
Method in brief: as §1

[20] = tested on: wheat, winter; assay: Test D preemergence; assay type: in vivo, Triticum aestivum; settings: for Plant response rating, Wheat, Winter: Preemergence, scale 0 to 100
Method in brief: as §1

[21] = 16 g ai/ha, taken as preemergence

CCc1cc(C(=O)NC2CC2)nn1Cc1ccnc(C(F)(F)F)c1 [Compound 76]
75: Plant response rating, Radish, Wild ([1]; 31 g ai/ha) | Plant response rating, Barley, Spring ([10]; 250 g ai/ha) | Plant response rating, Barley, Winter ([11]; 250 g ai/ha) | Plant response rating, Wheat, Spring ([19]; 250 g ai/ha)
100: Plant response rating, Radish, Wild ([1]; 62 g ai/ha) | Plant response rating, Radish, Wild ([1]; 125 g ai/ha) | Plant response rating, Radish, Wild ([1]; 250 g ai/ha) | Buckwheat, Wild plant response rating ([4]; Postemergence, 250 g ai/ha) | Plant response rating, Foxtail, Green ([5]; 62 g ai/ha) | Plant response rating, Foxtail, Green ([5]; 125 g ai/ha) | Plant response rating, Foxtail, Green ([5]; 250 g ai/ha) | Mustard, Wild plant response rating ([7]; Postemergence, 125 g ai/ha) | Mustard, Wild plant response rating ([7]; Postemergence, 250 g ai/ha) | Plant response rating, Deadnettle ([9]; 62 g ai/ha) | Plant response rating, Deadnettle ([9]; 125 g ai/ha) | Plant response rating, Deadnettle ([9]; 250 g ai/ha) | Plant response rating, Pigweed ([14]; 125 g ai/ha) | Plant response rating, Pigweed ([14]; 250 g ai/ha) | Plant response rating, Chamomile ([15]; 125 g ai/ha) | Plant response rating, Chamomile ([15]; 250 g ai/ha) | Plant response rating, Lambsquarters ([17]; 125 g ai/ha) | Plant response rating, Lambsquarters ([17]; 250 g ai/ha)
85: Field Violet plant response rating ([6]; Postemergence, 250 g ai/ha)
50: Plant response rating, Pigweed ([2]; Postemergence, 16 g ai/ha) | Deadnettle plant response rating ([3]; Postemergence, 125 g ai/ha) | Plant response rating, Buckwheat, Wild ([4]; Postemergence, 16 g ai/ha) | Buckwheat, Wild plant response rating ([4]; postemergence, 62 g ai/ha) | Plant response rating, Foxtail, Green ([5]; 31 g ai/ha) | Plant response rating, Deadnettle ([9]; 31 g ai/ha) | Plant response rating (scale 0 to 100), Chamomile [15, 21]
55: Pigweed plant response rating ([2]; Postemergence, 31 g ai/ha) | Buckwheat, Wild plant response rating ([4]; Postemergence, 31 g ai/ha)
60: Buckwheat, Wild plant response rating ([4]; Postemergence, 125 g ai/ha) | Plant response rating, Barley, Winter ([11]; 125 g ai/ha) | Plant response rating, Pigweed ([14]; 31 g ai/ha) | Plant response rating, Wheat, Spring ([19]; 125 g ai/ha) | Plant response rating, Wheat, Winter ([20]; 250 g ai/ha)
40: Deadnettle plant response rating ([3]; postemergence, 62 g ai/ha) | Mustard, Wild plant response rating ([7]; Postemergence, 31 g ai/ha) | Plant response rating, Wheat, Winter ([20]; 125 g ai/ha)
70: Deadnettle plant response rating ([3]; Postemergence, 250 g ai/ha) | Field Violet plant response rating ([6]; Postemergence, 125 g ai/ha) | Mustard, Wild plant response rating ([7]; postemergence, 62 g ai/ha) | Plant response rating, Lambsquarters ([17]; 31 g ai/ha)
20: Field Violet plant response rating ([6]; postemergence, 62 g ai/ha) | Barley, Winter plant response rating ([13]; Postemergence, 250 g ai/ha)
95: Plant response rating, Chamomile ([15]; 62 g ai/ha) | Plant response rating, Lambsquarters ([17]; 62 g ai/ha)
5: Plant response rating, Canarygrass ([8]; Postemergence, 16 g ai/ha) | Canarygrass plant response rating ([8]; Postemergence, 31 g ai/ha) | Barley, Spring plant response rating ([12]; postemergence, 62 g ai/ha) | Plant response rating, Bromegrass, Downy ([16]; 125 g ai/ha) | Plant response rating, Oat, Wild ([18]; Postemergence, 16 g ai/ha) | Oat, Wild plant response rating ([18]; Postemergence, 31 g ai/ha) | Plant response rating, Wheat, Winter ([20]; 62 g ai/ha)
30: Plant response rating (scale 0 to 100), Lambsquarters [17, 21]
0: Plant response rating (scale 0 to 100), Deadnettle [9, 21] | Plant response rating (scale 0 to 100), Barley, Spring ([10]; 16 g ai/ha, taken as preemergence, 0 = no effect, 100 = complete control) | Plant response rating, Barley, Spring ([10]; 31 g ai/ha) | Plant response rating (scale 0 to 100), Barley, Winter [11, 21] | Plant response rating, Barley, Winter ([11]; 31 g ai/ha) | Barley, Spring plant response rating ([12]; Postemergence, 16 g ai/ha) | Barley, Spring plant response rating ([12]; Postemergence, 31 g ai/ha) | Plant response rating (scale 0 to 100), Bromegrass, Downy [16, 21] | Plant response rating, Bromegrass, Downy ([16]; 31 g ai/ha) | Plant response rating, Bromegrass, Downy ([16]; 62 g ai/ha) | Plant response rating (scale 0 to 100), Wheat, Spring [19, 21] | Plant response rating, Wheat, Spring ([19]; 31 g ai/ha) | Plant response rating (scale 0 to 100), Wheat, Winter [20, 21] | Plant response rating, Wheat, Winter ([20]; 31 g ai/ha)
15: Plant response rating, Deadnettle ([3]; Postemergence, 16 g ai/ha) | Field Violet plant response rating ([6]; Postemergence, 31 g ai/ha) | Canarygrass plant response rating ([8]; Postemergence, 250 g ai/ha) | Plant response rating, Barley, Winter ([11]; 62 g ai/ha) | Barley, Spring plant response rating ([12]; Postemergence, 250 g ai/ha) | Barley, Winter plant response rating ([13]; Postemergence, 125 g ai/ha) | Oat, Wild plant response rating ([18]; Postemergence, 250 g ai/ha)
10: Plant response rating, Field Violet ([6]; Postemergence, 16 g ai/ha) | Plant response rating, Mustard, Wild ([7]; Postemergence, 16 g ai/ha) | Canarygrass plant response rating ([8]; Postemergence, 125 g ai/ha) | Canarygrass plant response rating ([8]; postemergence, 62 g ai/ha) | Plant response rating, Barley, Spring ([10]; 62 g ai/ha) | Barley, Spring plant response rating ([12]; Postemergence, 125 g ai/ha) | Barley, Winter plant response rating ([13]; Postemergence, 16 g ai/ha) | Barley, Winter plant response rating ([13]; Postemergence, 31 g ai/ha) | Barley, Winter plant response rating ([13]; postemergence, 62 g ai/ha) | Plant response rating (scale 0 to 100), Pigweed [14, 21] | Oat, Wild plant response rating ([18]; Postemergence, 125 g ai/ha) | Oat, Wild plant response rating ([18]; postemergence, 62 g ai/ha) | Plant response rating, Wheat, Spring ([19]; 62 g ai/ha)
65: Pigweed plant response rating ([2]; postemergence, 62 g ai/ha) | Plant response rating, Barley, Spring ([10]; 125 g ai/ha) | Plant response rating, Bromegrass, Downy ([16]; 250 g ai/ha)
80: Pigweed plant response rating ([2]; Postemergence, 125 g ai/ha) | Pigweed plant response rating ([2]; Postemergence, 250 g ai/ha) | Plant response rating, Pigweed ([14]; 62 g ai/ha) | Plant response rating, Chamomile ([15]; 31 g ai/ha)
25: Deadnettle plant response rating ([3]; Postemergence, 31 g ai/ha) | Plant response rating (scale 0 to 100), Foxtail, Green [5, 21]
